{
  "source": "ChEMBL document CHEMBL5113401",
  "about": "“Novel 1,3,4-oxadiazole chalcogen analogues: Synthesis and cytotoxic activity” (Eur J Med Chem, 2022)",
  "data": [
    {"test_system": "PC-3", "test": "Antiproliferative activity against human PC-3 cells assessed as inhibition of cell growth incubated for 48 hrs by XTT assay", "assay_type": "functional, cell-based", "settings": "PC-3, 48 h", "units": {"IC50": "µM"}, "values": [
      {"smiles": "Cc1[nH]c2c(c1-c1nnc(-c3ccc(Cl)cc3)[se]1)Cc1ccccc1-2", "IC50": "> 10"},
      {"smiles": "COc1cc(-c2nnc(-c3c(C)[nH]c4c3Cc3ccccc3-4)[se]2)cc(OC)c1OC", "IC50": "> 10"},
      {"smiles": "Cc1[nH]c2c(c1-c1nnc(-c3ccc(C(C)(C)C)cc3)[se]1)Cc1ccccc1-2", "IC50": "> 10"},
      {"smiles": "Cc1[nH]c2c(c1-c1nnc(-c3ccc(Cl)cc3)s1)Cc1ccccc1-2", "IC50": "> 10"},
      {"smiles": "Cc1[nH]c2c(c1-c1nnc(-c3ccc(C(C)(C)C)cc3)s1)Cc1ccccc1-2", "IC50": "> 10"},
      {"smiles": "COc1cc(-c2nnc(-c3c(C)[nH]c4c3Cc3ccccc3-4)s2)cc(OC)c1OC", "IC50": "> 10"},
      {"smiles": "Cc1[nH]c2c(c1-c1nnc(-c3ccc(Cl)c(Cl)c3)[se]1)Cc1ccccc1-2", "IC50": "> 10"},
      {"smiles": "Cc1[nH]c2c(c1-c1nnc(-c3cccc(Cl)c3)s1)Cc1ccccc1-2", "IC50": "> 10"}
    ]},
    {"test_system": "MCF7", "test": "Antiproliferative activity against human MCF7 cells assessed as inhibition of cell growth incubated for 48 hrs by XTT assay", "assay_type": "functional, cell-based", "settings": "MCF7, 48 h", "units": {"IC50": "µM"}, "values": [
      {"smiles": "Cc1[nH]c2c(c1-c1nnc(-c3ccc(Cl)cc3)[se]1)Cc1ccccc1-2", "IC50": "> 10"},
      {"smiles": "COc1cc(-c2nnc(-c3c(C)[nH]c4c3Cc3ccccc3-4)[se]2)cc(OC)c1OC", "IC50": "> 10"},
      {"smiles": "Cc1[nH]c2c(c1-c1nnc(-c3ccc(C(C)(C)C)cc3)[se]1)Cc1ccccc1-2", "IC50": "> 10"},
      {"smiles": "Cc1[nH]c2c(c1-c1nnc(-c3ccc(Cl)cc3)s1)Cc1ccccc1-2", "IC50": "> 10"},
      {"smiles": "Cc1[nH]c2c(c1-c1nnc(-c3ccc(C(C)(C)C)cc3)s1)Cc1ccccc1-2", "IC50": "> 10"},
      {"smiles": "COc1cc(-c2nnc(-c3c(C)[nH]c4c3Cc3ccccc3-4)s2)cc(OC)c1OC", "IC50": "> 10"},
      {"smiles": "Cc1[nH]c2c(c1-c1nnc(-c3ccc(Cl)c(Cl)c3)[se]1)Cc1ccccc1-2", "IC50": "> 10"},
      {"smiles": "Cc1[nH]c2c(c1-c1nnc(-c3cccc(Cl)c3)s1)Cc1ccccc1-2", "IC50": "> 10"}
    ]},
    {"test_system": "HeLa", "test": "Antiproliferative activity against human HeLa cells assessed as inhibition of cell growth incubated for 48 hrs by XTT assay", "assay_type": "functional, cell-based", "settings": "not given", "units": {"IC50": "µM"}, "values": [
      {"smiles": "Cc1[nH]c2c(c1-c1nnc(-c3ccc(Cl)cc3)[se]1)Cc1ccccc1-2", "IC50": "> 10"},
      {"smiles": "COc1cc(-c2nnc(-c3c(C)[nH]c4c3Cc3ccccc3-4)[se]2)cc(OC)c1OC", "IC50": "> 10"},
      {"smiles": "Cc1[nH]c2c(c1-c1nnc(-c3ccc(C(C)(C)C)cc3)[se]1)Cc1ccccc1-2", "IC50": "> 10"},
      {"smiles": "Cc1[nH]c2c(c1-c1nnc(-c3ccc(Cl)cc3)s1)Cc1ccccc1-2", "IC50": "> 10"},
      {"smiles": "Cc1[nH]c2c(c1-c1nnc(-c3ccc(C(C)(C)C)cc3)s1)Cc1ccccc1-2", "IC50": "> 10"},
      {"smiles": "COc1cc(-c2nnc(-c3c(C)[nH]c4c3Cc3ccccc3-4)s2)cc(OC)c1OC", "IC50": "> 10"},
      {"smiles": "Cc1[nH]c2c(c1-c1nnc(-c3ccc(Cl)c(Cl)c3)[se]1)Cc1ccccc1-2", "IC50": "> 10"},
      {"smiles": "Cc1[nH]c2c(c1-c1nnc(-c3cccc(Cl)c3)s1)Cc1ccccc1-2", "IC50": "> 10"}
    ]}
  ]
}
